From article PMC10178848, “Modulating fast skeletal muscle contraction protects skeletal muscle in animal models of Duchenne muscular dystrophy” (The Journal of Clinical Investigation, 2023)
pIC50: −log10 of the molar value.

Key:
[1] = molecular target: Rabbit Cardiac myofibrils; experiment: Myofibril ATPase, rabbit cardiac; assay type: biochemical; details: 25% MHCα, 75% MHC β, at pCa 50
90 kinase proteins = experiment: KINOMEscan off-target binding panel (whole panel); details: 20 μM
mdx lumbrical muscle = experiment: Ex vivo mdx lumbrical muscle contraction, calcium and clots; design: species or system mouse
Method: Intracellular calcium quantification and isometric injury were described previously ([31]). Lumbrical muscles were transferred to a custom-built chamber and mounted horizontally to a force transducer (model 400A, Aurora Scientific) at 25°C. Sarcomere length was adjusted to 2.5 μm by microscope. Contraction was elicited with 0.2-millisecond stimuli and injury via 1-second stimuli at 125 Hz.
For fluorescence experiments, a 75W xenon lamp was used with wavelengths selected using a diffraction grating monochromator (model DeltaRAM, Photon Technology International). Muscles were loaded with mag-fura-2 AM (10 μM in Tyrode) for 30 minutes at 25°C, excited at 344 and 375 nm (bandwidth 10 nm), and passed through a 510 nm emission filter (bandwidth 40 nm). Fluorescence responses were recorded alternately during 32 twitch contractions at 20-second intervals; background fluorescence was subtracted, and the response was averaged. High-affinity fura-2 was used to detect membrane breaches between tetanic contractions. Muscles were incubated with fura-2 AM (15 μM in Tyrode) for 30 minutes before 12 injurious contractions, separated by 1 minute with (10/s) alternating excitation wavelengths of 340 and 375 nm (bandwidth 1.25 nm) with a 510 nm emission filter (bandwidth 40 nm) and preloading background subtraction. Still and video images were captured using a digital camera (Nikon D750).

[2] = tested on: mdx mouse gastrocnemius muscle; experiment: RNA-Seq analysis of gastrocnemius muscle; assay type: in vivo
Method: RNA-Seq was performed with isolated single nuclei using the 10X Genomics Chromium Single Cell 3’ Protocol, Accessories, and Kits (CG000183 Rev A). Data were then analyzed by Rosalind (https://rosalind.onramp.bio/), with a HyperScale architecture developed by OnRamp BioInformatics Inc. Data have been submitted to the Gene Expression Omnibus (GEO) database at the NIH (accession GSE227510).

ACVR1B = molecular target: T1, ACVR1B (Homo sapiens, UniProt P36896); experiment: KINOMEscan scanEDGE; assay type: binding; details: 20 uM
T1 construct: purchased Eurofins DiscoverX (KINOMEscan; SAFETYscan E/IC50 ELECT)

ADCK3 = molecular target: T2, ADCK3 (Homo sapiens, UniProt Q8NI60); experiment: KINOMEscan scanEDGE; assay type: binding; details: 20 uM
T2 construct: purchased Eurofins DiscoverX (KINOMEscan; SAFETYscan E/IC50 ELECT)

AKT2 = molecular target: T3, AKT2 (Homo sapiens, UniProt P31751); experiment: KINOMEscan scanEDGE; assay type: binding; details: 20 uM
T3 construct: purchased Eurofins DiscoverX (KINOMEscan; SAFETYscan E/IC50 ELECT)

AURKB = molecular target: T4, AURKB (Homo sapiens, UniProt Q96GD4); experiment: KINOMEscan scanEDGE; assay type: binding; details: 20 uM
T4 construct: purchased Eurofins DiscoverX (KINOMEscan; SAFETYscan E/IC50 ELECT)

BRAF = molecular target: T5, BRAF (Homo sapiens, UniProt P15056); experiment: KINOMEscan scanEDGE; assay type: binding; details: 20 uM
T5 construct: purchased Eurofins DiscoverX (KINOMEscan; SAFETYscan E/IC50 ELECT)

CDK7 = molecular target: T6, CDK7 (Homo sapiens, UniProt P50613); experiment: KINOMEscan scanEDGE; assay type: binding; details: 20 uM
T6 construct: purchased Eurofins DiscoverX (KINOMEscan; SAFETYscan E/IC50 ELECT)

CDK9 = molecular target: T7, CDK9 (Homo sapiens, UniProt P50750); experiment: KINOMEscan scanEDGE; assay type: binding; details: 20 uM
T7 construct: purchased Eurofins DiscoverX (KINOMEscan; SAFETYscan E/IC50 ELECT)

CSF1R = molecular target: T8, CSF1R (Homo sapiens, UniProt P07333); experiment: KINOMEscan scanEDGE; assay type: binding; details: 20 uM
T8 construct: purchased Eurofins DiscoverX (KINOMEscan; SAFETYscan E/IC50 ELECT)

ERK1 = molecular target: T9, ERK1 (Homo sapiens, UniProt P27361); experiment: KINOMEscan scanEDGE; assay type: binding; details: 20 uM
T9 construct: purchased Eurofins DiscoverX (KINOMEscan; SAFETYscan E/IC50 ELECT)

IGF1R = molecular target: T10, IGF1R (Homo sapiens, UniProt P08069); experiment: KINOMEscan scanEDGE; assay type: binding; details: 20 uM
T10 construct: purchased Eurofins DiscoverX (KINOMEscan; SAFETYscan E/IC50 ELECT)

IKK-alpha = molecular target: T11, IKK-alpha (Homo sapiens, UniProt O15111); experiment: KINOMEscan scanEDGE; assay type: binding; details: 20 uM
T11 construct: purchased Eurofins DiscoverX (KINOMEscan; SAFETYscan E/IC50 ELECT)

KIT(D816V) = molecular target: T12, KIT(D816V) (Homo sapiens, UniProt P10721, D816V); experiment: KINOMEscan scanEDGE; assay type: binding; details: 20 uM
T12 construct: purchased Eurofins DiscoverX (KINOMEscan; SAFETYscan E/IC50 ELECT)

LKB1 = molecular target: T13, LKB1 (Homo sapiens, UniProt Q15831); experiment: KINOMEscan scanEDGE; assay type: binding; details: 20 uM
T13 construct: purchased Eurofins DiscoverX (KINOMEscan; SAFETYscan E/IC50 ELECT)

MEK1 = molecular target: T14, MEK1 (Homo sapiens, UniProt Q02750); experiment: KINOMEscan scanEDGE; assay type: binding; details: 20 uM
T14 construct: purchased Eurofins DiscoverX (KINOMEscan; SAFETYscan E/IC50 ELECT)

PAK2 = molecular target: T15, PAK2 (Homo sapiens, UniProt Q13177); experiment: KINOMEscan scanEDGE; assay type: binding; details: 20 uM
T15 construct: purchased Eurofins DiscoverX (KINOMEscan; SAFETYscan E/IC50 ELECT)

PAK4 = molecular target: T16, PAK4 (Homo sapiens, UniProt O96013); experiment: KINOMEscan scanEDGE; assay type: binding; details: 20 uM
T16 construct: purchased Eurofins DiscoverX (KINOMEscan; SAFETYscan E/IC50 ELECT)

PDGFRA = molecular target: T17, PDGFRA (Homo sapiens, UniProt P16234); experiment: KINOMEscan scanEDGE; assay type: binding; details: 20 uM
T17 construct: purchased Eurofins DiscoverX (KINOMEscan; SAFETYscan E/IC50 ELECT)

PDGFRB = molecular target: T18, PDGFRB (Homo sapiens, UniProt P09619); experiment: KINOMEscan scanEDGE; assay type: binding; details: 20 uM
T18 construct: purchased Eurofins DiscoverX (KINOMEscan; SAFETYscan E/IC50 ELECT)

PIK3CA = molecular target: T19, PIK3CA (Homo sapiens, UniProt P42336); experiment: KINOMEscan scanEDGE; assay type: binding; details: 20 uM
T19 construct: purchased Eurofins DiscoverX (KINOMEscan; SAFETYscan E/IC50 ELECT)

RAF1 = molecular target: T20, RAF1 (Homo sapiens, UniProt P04049); experiment: KINOMEscan scanEDGE; assay type: binding; details: 20 uM
T20 construct: purchased Eurofins DiscoverX (KINOMEscan; SAFETYscan E/IC50 ELECT)

ROCK2 = molecular target: T21, ROCK2 (Homo sapiens, UniProt O75116); experiment: KINOMEscan scanEDGE; assay type: binding; details: 20 uM
T21 construct: purchased Eurofins DiscoverX (KINOMEscan; SAFETYscan E/IC50 ELECT)

TGFBR1 = molecular target: T22, TGFBR1 (Homo sapiens, UniProt P36897); experiment: KINOMEscan scanEDGE; assay type: binding; details: 20 uM
T22 construct: purchased Eurofins DiscoverX (KINOMEscan; SAFETYscan E/IC50 ELECT)

VEGFR2 = molecular target: T23, VEGFR2 (Homo sapiens, UniProt P35968); experiment: KINOMEscan scanEDGE; assay type: binding; details: 20 uM
T23 construct: purchased Eurofins DiscoverX (KINOMEscan; SAFETYscan E/IC50 ELECT)

[3] = mdx EDG-5506 3 mg/kg vs mdx Control

T3 sequence (P31751 whole entry): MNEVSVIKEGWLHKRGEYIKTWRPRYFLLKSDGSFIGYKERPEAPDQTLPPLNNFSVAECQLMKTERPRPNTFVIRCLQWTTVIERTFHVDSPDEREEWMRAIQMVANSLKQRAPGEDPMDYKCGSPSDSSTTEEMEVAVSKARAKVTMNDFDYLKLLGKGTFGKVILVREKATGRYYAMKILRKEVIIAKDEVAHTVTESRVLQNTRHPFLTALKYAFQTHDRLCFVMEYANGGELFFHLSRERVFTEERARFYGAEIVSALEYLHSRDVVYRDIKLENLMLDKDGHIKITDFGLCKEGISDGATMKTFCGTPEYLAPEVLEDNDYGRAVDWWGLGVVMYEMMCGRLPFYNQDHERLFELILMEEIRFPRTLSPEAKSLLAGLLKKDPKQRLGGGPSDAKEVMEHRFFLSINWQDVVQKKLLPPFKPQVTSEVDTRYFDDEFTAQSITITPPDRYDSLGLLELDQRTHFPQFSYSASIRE
T22 sequence (P36897 34-503): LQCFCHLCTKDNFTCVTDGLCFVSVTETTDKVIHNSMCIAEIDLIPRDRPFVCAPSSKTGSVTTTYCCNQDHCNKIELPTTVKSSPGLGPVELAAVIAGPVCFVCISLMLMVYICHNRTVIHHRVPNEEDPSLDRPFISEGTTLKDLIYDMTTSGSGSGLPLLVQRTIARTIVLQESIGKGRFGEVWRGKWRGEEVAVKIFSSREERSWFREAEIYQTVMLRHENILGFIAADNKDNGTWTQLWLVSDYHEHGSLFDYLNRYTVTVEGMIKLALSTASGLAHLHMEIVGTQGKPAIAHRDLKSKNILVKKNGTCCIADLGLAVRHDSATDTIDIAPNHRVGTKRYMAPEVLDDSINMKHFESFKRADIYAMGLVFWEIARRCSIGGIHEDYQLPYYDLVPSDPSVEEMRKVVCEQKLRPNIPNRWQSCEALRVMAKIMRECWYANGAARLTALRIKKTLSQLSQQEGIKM
T6 sequence (P50613 whole entry): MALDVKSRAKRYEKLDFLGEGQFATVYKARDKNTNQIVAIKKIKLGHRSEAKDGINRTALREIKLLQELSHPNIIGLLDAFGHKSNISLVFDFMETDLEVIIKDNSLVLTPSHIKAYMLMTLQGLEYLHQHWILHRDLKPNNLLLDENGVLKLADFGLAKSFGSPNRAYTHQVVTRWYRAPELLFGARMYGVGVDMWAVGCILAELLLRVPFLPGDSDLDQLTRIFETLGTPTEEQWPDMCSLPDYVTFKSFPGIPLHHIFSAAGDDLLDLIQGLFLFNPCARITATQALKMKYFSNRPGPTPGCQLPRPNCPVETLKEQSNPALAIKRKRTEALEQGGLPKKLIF
T20 sequence (P04049 whole entry): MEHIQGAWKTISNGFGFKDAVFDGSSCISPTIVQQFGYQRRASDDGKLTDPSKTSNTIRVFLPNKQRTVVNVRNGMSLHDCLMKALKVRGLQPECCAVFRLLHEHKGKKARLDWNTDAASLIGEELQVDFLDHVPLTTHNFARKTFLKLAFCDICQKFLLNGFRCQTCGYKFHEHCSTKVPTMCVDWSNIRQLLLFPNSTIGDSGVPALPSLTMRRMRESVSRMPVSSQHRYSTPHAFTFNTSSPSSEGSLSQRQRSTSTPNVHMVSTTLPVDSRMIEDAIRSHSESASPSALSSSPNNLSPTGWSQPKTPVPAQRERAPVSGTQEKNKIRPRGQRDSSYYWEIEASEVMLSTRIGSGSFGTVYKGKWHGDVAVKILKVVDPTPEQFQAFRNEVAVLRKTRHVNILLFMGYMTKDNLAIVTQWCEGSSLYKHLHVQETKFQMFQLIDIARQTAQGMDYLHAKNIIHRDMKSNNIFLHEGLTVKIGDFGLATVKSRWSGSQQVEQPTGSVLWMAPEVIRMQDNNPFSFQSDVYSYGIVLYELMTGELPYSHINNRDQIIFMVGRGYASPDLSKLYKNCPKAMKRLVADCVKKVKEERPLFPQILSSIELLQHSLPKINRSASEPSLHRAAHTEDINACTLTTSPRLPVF
T17 sequence (P16234 24-1089): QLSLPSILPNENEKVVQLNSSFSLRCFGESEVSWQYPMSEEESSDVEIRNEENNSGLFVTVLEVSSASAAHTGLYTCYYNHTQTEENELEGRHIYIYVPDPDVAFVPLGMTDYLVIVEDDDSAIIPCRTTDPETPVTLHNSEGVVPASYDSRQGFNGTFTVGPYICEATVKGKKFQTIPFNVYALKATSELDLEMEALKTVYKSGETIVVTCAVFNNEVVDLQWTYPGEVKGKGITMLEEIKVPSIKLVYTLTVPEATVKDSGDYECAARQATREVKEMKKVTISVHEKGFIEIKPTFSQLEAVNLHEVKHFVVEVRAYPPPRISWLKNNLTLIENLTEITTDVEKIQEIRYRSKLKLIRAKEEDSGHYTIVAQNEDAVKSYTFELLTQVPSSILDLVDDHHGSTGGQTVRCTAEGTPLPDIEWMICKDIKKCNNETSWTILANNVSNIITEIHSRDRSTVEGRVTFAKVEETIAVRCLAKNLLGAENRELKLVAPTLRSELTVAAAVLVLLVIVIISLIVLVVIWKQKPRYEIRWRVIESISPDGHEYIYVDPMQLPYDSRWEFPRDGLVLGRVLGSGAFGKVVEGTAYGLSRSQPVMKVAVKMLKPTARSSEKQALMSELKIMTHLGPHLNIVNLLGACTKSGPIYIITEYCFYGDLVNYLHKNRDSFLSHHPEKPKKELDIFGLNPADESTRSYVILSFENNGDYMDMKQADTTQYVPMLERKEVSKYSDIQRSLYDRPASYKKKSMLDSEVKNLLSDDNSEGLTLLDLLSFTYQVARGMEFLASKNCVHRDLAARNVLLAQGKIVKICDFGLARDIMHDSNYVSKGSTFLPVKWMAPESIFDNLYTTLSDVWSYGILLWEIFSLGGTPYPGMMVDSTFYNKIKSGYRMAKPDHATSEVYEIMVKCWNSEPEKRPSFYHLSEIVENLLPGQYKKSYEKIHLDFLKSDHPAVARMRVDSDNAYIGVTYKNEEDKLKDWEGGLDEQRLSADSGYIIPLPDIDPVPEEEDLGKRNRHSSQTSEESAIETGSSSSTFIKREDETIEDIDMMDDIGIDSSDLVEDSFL
T9 sequence (P27361 whole entry): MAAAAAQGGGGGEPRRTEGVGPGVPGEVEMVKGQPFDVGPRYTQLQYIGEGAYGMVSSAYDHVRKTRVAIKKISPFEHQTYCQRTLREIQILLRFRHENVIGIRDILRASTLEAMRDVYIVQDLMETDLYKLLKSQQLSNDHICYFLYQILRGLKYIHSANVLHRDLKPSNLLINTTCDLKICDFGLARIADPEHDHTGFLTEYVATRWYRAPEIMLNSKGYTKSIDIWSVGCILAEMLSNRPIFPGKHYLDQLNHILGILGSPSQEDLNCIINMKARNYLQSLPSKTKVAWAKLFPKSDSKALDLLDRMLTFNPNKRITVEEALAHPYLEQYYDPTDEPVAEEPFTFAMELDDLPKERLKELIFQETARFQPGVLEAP
T10 sequence (P08069 31-1367): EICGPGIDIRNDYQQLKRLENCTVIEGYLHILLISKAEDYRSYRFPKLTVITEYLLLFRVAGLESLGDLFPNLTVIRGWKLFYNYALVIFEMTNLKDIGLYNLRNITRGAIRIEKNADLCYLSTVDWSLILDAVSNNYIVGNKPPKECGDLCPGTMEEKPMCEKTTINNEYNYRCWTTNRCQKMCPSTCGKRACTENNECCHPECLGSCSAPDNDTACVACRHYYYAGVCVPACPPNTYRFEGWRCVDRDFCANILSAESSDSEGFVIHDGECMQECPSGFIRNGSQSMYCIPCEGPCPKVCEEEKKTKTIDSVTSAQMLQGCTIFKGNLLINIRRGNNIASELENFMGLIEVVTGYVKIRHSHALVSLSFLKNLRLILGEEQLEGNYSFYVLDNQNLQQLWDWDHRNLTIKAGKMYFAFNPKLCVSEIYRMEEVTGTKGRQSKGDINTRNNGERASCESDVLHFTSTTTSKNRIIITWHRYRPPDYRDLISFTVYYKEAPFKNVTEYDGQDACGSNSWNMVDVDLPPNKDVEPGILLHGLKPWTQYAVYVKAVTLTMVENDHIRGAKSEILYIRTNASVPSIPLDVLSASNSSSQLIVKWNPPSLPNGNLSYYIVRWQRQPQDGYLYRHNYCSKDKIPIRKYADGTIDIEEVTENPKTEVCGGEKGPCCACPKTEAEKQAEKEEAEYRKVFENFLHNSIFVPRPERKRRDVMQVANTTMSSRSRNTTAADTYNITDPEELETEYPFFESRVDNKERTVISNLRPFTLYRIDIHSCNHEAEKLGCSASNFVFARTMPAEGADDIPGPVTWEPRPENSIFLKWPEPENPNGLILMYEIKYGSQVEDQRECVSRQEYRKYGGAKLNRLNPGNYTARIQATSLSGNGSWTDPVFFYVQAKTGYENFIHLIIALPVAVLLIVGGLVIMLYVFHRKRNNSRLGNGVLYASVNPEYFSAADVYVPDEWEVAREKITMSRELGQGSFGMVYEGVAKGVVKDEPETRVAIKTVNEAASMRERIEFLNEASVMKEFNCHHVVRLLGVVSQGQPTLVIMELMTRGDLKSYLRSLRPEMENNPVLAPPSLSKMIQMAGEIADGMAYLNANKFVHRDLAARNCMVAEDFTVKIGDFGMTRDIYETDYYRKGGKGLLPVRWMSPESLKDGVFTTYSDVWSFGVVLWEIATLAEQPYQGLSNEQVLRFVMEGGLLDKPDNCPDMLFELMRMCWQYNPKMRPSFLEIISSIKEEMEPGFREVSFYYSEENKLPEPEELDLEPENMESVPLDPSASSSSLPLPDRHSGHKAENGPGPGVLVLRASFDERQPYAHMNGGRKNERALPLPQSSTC

## O=c1ccc(-c2cnc(OCC(F)(F)F)nc2)nn1Cc1cncc(F)c1 [EDG-5506]
[1]
  pIC50: < 4.00
90 kinase proteins
  binding affinity with kinase panel: did not exhibit any binding affinity
Mdx lumbrical muscle; 0.3 μM
  reduction of specific tension before injury: 15%
Mdx lumbrical muscle; mdx lumbrical
  strength drop with contraction: completely prevented
Mdx lumbrical muscle; mdx lumbrical, after 12 contractions
  clot formation (hypercontraction): completely prevented clot formation
Mdx lumbrical muscle; mdx lumbrical, repeated tetanic contraction
  concentration of maximal efficacy: 0.3 µM
[2]; mdx EDG-5506 3 mg/kg vs WT
  log2FoldChange Chrng: 0.42
  log2FoldChange Igfn1: 2.931
  log2FoldChange Katnal2: 1.899
  log2FoldChange Myh8: 0.5674
  log2FoldChange Myl4: 1.684
[2]; [3]
  log2FoldChange Chrng: -0.2866
  log2FoldChange Igfn1: -0.9018
  log2FoldChange Katnal2: -0.9377
  log2FoldChange Myh8: -0.538
  log2FoldChange Myl4: -1.31
[2]; mdx mice, 8 weeks
  skeletal muscle transcription profile: returned the skeletal muscle transcription profile closer to that of WT mice
ACVR1B
  binding, % of control: 91 % of control
ADCK3
  binding, % of control: 93 % of control
AKT2
  binding, % of control: 93 % of control
AURKB
  binding, % of control: 82 % of control
BRAF
  binding, % of control: 91 % of control
CDK7
  binding, % of control: 83 % of control
CDK9
  binding, % of control: 96 % of control
CSF1R
  binding, % of control: 100 % of control
ERK1
  binding, % of control: 100 % of control
IGF1R
  binding, % of control: 94 % of control
IKK-alpha
  binding, % of control: 93 % of control
KIT(D816V)
  binding, % of control: 87 % of control
LKB1
  binding, % of control: 86 % of control
MEK1
  binding, % of control: 78 % of control
PAK2
  binding, % of control: 98 % of control
PAK4
  binding, % of control: 99 % of control
PDGFRA
  binding, % of control: 100 % of control
PDGFRB
  binding, % of control: 100 % of control
PIK3CA
  binding, % of control: 100 % of control
RAF1
  binding, % of control: 100 % of control
ROCK2
  binding, % of control: 89 % of control
TGFBR1
  binding, % of control: 100 % of control
VEGFR2
  binding, % of control: 77 % of control
